Data: PMC5390258, “CMD-05, a novel promising clinical anti-diabetic drug candidate, in vivo and vitro studies” (Scientific Reports, 2017)

Columns and labels:
[1] = tested on: HbA1c; test: HbA1c level in blood of model rats; assay type: in vivo, rat; details: 30 days
Description: To establish model of T2DM, male rats (80–100 g, 9-week-old)[49] were fed high fat diet (HFD) (20% sugar, 10% lard, 10% egg yolk and 60% basal feed) after a week of normal diet. After 4 weeks, rats were injected once with low-dose streptozotocin (Solarbio, China) (STZ, 30 mg/kg i.p) to induce partial insulin deficiency, and then continuously fed HFD for 4 weeks after injection of STZ. Then the model rats were oral administrated drugs for 30 days. The body weights were recorded once a week.
Oral glucose load, fasted and random blood samples were collected from rats on the 28th days, the 29th days and the last of the treatment of drugs, respectively. Plasma levels of insulin and GLP-1 were measured by ELISA kits (YuanYe, China) according to the manufacturer’s recommendation. The levels of HbA1c, Triglycerides (TG), total cholesterol (TC) and low density lipoprotein cholesterol (LDL-C) in blood samples were measured by commercial assay kits (JianCheng, Nanjing, China) according to the manufacturer’s directions.

[2] = tested on: pancreatic islets; test: Morphologic observation on islet of model rats (HE, immunofluorescence, TEM); assay type: in vivo, rat
Description: HE staining on paraffin section was performed as described in reports. In brief, paraffin section were rinsed with PBS, fixed with 4% paraformaldehyde (PFA) for 30 min and then washed by PBS. The pancreas tissue were stained with Hematoxylin-Eosin, afterwards, they were dehydrated in alcohols. Morphological changes of the pancreas tissue were observed under an optical microscope (Olympus, Japan) after mounted by neutral resins.
Pancreas sections (8 μm) were cut in a cryostat and collected on superfrost microscope slides. The slides were stored at −20 °C till analysis. Immunofluorescent staining was used for detection of insulin (β cells) (1:100, Anti-Insulin antibody, Abcam), glucagon (α cells) (1:200, Anti-glucagon, Abcam). Briefly, the slides were blocked in 5% normal goat serum for 1 h in a humidified chamber. Slides were exposed to primary antibodies at a dilution of […] in antibody diluting solution at 4 °C overnight, washed in PBS, and exposed to appropriate secondary antibodies linked to the fluorescent probes (Goat Anti-Guinea pig IgG/FITC and Alexa Fluor 594-conjugated Goat Anti-Rabbit IgG) (Bioss and Proteintech, China) in antibody diluting solution for 1 h and DAPI (Beyotime, China) for 5 min in the dark. After washed by PBS, slides were mounted with a glycerol mounting medium. Images were collected using a fluorescent microscope (Nikon, Japan).
For transmission electron microscopy, about 1 mm^3 tissue specimens were obtained from the same pancreas region of the control and experimental groups of rats, and fixed overnight in 2% glutaraldehyde (pH7.3) in 0.1 M phosphate buffer saline at 4 °C. Images of pancreatic islets were captured from random tissue sections using a transmission electron microscope.

[3] = tested on: INS-1 cells; test: Proliferation of INS-1 cells (CCK-8); assay type: cell-based, rat; details: 1 × 10^−4 and 3 × 10^−5 M, 24 h, CCK-8, vs DMSO
Description: The rat insulinoma cell line INS-1 (832/13) was obtained from the Department of endocrinology at 1st affiliated hospital of Chongqing medical university. Cells were cultured in RPMI 1640 (Gibco, USA) (11 mmol/l glucose, 100 units/ml penicillin, […] streptomycin, 10 mmol/l HEPES pH 7.4) supplemented with 10% FBS (Gibco, USA), 2 mmol/l L-glutamine, 1 mmol/l pyruvate, and 50 μmol/l β-mercaptoethanol. […] 10 μl of CCK-8 was then added and incubated at 37 °C and 5% CO2 for 1.5 h and […] (OD) was read at 460 nm with microplate reader. The OD value represents the proliferation activity.

[4] = molecular target: T1, plasma DPP-IV (Rattus norvegicus, UniProt P14740); test: Plasma DPP-IV activity after single oral dose in fasting normal rats; assay type: in vivo; details: single oral 4.5 mg/kg
T1 construct: from tissue; host or cells: plasma of Sprague-Dawley rats
T1 sequence (P14740 whole entry): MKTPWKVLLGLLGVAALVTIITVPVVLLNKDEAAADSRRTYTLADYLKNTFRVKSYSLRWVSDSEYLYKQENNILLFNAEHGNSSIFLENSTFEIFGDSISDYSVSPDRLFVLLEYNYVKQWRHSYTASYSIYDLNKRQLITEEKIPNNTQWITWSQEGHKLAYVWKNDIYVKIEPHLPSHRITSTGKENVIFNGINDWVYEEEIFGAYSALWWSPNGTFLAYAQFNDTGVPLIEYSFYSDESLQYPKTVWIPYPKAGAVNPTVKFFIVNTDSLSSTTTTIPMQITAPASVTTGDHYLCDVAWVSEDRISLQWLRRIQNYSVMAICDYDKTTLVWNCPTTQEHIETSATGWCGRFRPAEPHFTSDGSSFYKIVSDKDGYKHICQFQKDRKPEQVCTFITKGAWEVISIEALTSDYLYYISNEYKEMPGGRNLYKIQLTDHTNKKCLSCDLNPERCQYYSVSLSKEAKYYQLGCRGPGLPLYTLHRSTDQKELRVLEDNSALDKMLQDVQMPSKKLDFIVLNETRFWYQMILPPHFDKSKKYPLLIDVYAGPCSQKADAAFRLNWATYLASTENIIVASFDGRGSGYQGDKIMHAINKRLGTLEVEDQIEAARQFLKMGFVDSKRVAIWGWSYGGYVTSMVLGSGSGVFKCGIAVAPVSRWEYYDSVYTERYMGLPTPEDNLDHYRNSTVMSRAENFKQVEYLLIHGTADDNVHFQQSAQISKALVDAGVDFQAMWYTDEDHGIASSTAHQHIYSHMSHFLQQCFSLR
Description: Oral glucose load, fasted and random blood samples was collected to measure DPP-IV activity at the 28th days, the 29th days and the last treatment of the CMD-05. DPP-IV enzyme assay was carried out according to a published method. The enzyme reaction was initiated by adding 5 mM Gly-Pro-AMC as a substrate. After 25 min of incubation, fluorescence of AMC released by the reaction was measured using a spectrofluorometer at an excitation wavelength of 353 nm and emission wavelength of 442 nm.
Blood samples were collected after administration of CMD-05 (4.5 mg/kg) at 15 min, 30 min, 1 h, 2 h, 4 h, 12 h, and 24 h to measure the DPP-IV activity in fasting normal rats, the concrete steps refer to the preceding.

[5] = tested on: HT22 cells; test: Cytotoxicity in HT22 cells (CCK-8); assay type: cell-based; details: 3 × 10^−6 to 3 × 10^−5 M, 12 h
Description: (§1) The toxicities of CMD-05 on HT22, 293 and […] cell lines was assessed using Cell Counting Kit-8 (CCK-8) (Biosharp, China). Briefly, the cells were plated on 96-well plates. […] The absorbance at 450 nm was measured using a microplate spectrophotometer.

[6] = tested on: LO-2 cells; test: Cytotoxicity in LO-2 cells (CCK-8); assay type: cell-based; details: 1 × 10^−4 M, 12 h
Description: as §1

N#C[C@@H]1CCCN1C(=O)CN(C(=O)CCCCCl)C12CC3CC(CC(O)(C3)C1)C2 [CMD-05]
reduction of the level of HbA1c ([1]; 1.5 mg/kg): 1.0%
reduction of the level of HbA1c ([1]; 4.5 mg/kg): 2.2%
distribution of β cells (insulin/glucagon double staining) ([2]; 30 days treatment): obviously improved
mass of α-cells (insulin/glucagon double staining) ([2]; 30 days treatment): mildly reduced
morphology of pancreatic islets (HE staining) ([2]; 30 days treatment): prevent islet from damage
secretory granules in β cells (transmission electron microscopy) ([2]; compared with the model): obviously increased
cells viabilities (proliferation) of INS-1 cells [3]: increased
inhibition at 4.5 mg/kg ([4]; rat, at 4 hours after the dose, read-out: maximum inhibition of plasma DPP-IV activity): ~90%
duration of plasma DPP-IV inhibition greater than 50% [4]: at least 15 hours
time of maximum inhibition of plasma DPP-IV activity [4]: 4 h
cytotoxicity (cell viability) [5]: did not induce significant cytotoxicity
cytotoxicity (cell viability) [6]: no detectable toxic effect
